Data published in US12479847B2 (DANA-FARBER CANCER INSTITUTE, INC., priority 2019, dated 2025).

Legend:
Assay in all cases: KINOMEscan (ScanMAX) kinase profiling
Format in all cases: binding
panel of 468 kinases [1] = molecular target: T1, panel of 468 kinases (Homo sapiens, UniProt Q8N568); details: DCAMKL2; 1 μM; read-out: % control
T1 construct: purchased KINOMEscan (ScanMAX) service

panel of 468 kinases [2] = molecular target: T2, panel of 468 kinases (Homo sapiens, UniProt Q06187); details: BTK; 1 μM; read-out: % control
T2 construct: purchased KINOMEscan (ScanMAX) service

panel of 468 kinases [3] = molecular target: T3, panel of 468 kinases (Homo sapiens, UniProt P21709); details: EPHA1; 1 μM; read-out: % control
T3 construct: purchased KINOMEscan (ScanMAX) service
T3 sequence (P21709 26-976): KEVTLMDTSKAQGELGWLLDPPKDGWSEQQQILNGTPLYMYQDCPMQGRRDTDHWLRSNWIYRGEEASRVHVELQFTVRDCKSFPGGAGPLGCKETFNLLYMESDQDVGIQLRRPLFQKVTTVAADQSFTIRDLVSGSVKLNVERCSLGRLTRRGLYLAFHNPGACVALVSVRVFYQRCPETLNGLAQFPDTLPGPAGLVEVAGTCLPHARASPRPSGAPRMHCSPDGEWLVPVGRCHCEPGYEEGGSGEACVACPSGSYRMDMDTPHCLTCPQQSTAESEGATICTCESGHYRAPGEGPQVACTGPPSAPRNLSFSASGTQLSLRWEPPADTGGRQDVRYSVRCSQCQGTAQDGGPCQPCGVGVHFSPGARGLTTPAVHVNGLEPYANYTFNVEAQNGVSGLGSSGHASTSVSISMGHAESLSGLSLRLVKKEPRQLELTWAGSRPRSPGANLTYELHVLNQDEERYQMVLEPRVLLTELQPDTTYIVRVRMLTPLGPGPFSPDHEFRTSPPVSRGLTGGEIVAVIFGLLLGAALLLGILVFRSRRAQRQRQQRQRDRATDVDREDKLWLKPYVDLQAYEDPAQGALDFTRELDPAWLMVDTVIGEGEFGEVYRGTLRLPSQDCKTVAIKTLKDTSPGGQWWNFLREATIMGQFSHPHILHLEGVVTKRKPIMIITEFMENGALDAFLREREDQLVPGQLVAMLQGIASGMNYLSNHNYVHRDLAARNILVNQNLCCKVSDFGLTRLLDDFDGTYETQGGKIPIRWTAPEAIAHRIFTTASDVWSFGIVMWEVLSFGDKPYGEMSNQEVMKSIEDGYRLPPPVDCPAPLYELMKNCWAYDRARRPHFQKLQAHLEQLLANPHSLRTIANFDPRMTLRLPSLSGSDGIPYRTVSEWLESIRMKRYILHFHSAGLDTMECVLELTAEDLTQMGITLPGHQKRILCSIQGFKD

panel of 468 kinases [4] = molecular target: T4, panel of 468 kinases (Homo sapiens, UniProt Q9NRH2); details: SNRK; 1 μM; read-out: % control
T4 construct: purchased KINOMEscan (ScanMAX) service
T4 sequence (Q9NRH2 1-765): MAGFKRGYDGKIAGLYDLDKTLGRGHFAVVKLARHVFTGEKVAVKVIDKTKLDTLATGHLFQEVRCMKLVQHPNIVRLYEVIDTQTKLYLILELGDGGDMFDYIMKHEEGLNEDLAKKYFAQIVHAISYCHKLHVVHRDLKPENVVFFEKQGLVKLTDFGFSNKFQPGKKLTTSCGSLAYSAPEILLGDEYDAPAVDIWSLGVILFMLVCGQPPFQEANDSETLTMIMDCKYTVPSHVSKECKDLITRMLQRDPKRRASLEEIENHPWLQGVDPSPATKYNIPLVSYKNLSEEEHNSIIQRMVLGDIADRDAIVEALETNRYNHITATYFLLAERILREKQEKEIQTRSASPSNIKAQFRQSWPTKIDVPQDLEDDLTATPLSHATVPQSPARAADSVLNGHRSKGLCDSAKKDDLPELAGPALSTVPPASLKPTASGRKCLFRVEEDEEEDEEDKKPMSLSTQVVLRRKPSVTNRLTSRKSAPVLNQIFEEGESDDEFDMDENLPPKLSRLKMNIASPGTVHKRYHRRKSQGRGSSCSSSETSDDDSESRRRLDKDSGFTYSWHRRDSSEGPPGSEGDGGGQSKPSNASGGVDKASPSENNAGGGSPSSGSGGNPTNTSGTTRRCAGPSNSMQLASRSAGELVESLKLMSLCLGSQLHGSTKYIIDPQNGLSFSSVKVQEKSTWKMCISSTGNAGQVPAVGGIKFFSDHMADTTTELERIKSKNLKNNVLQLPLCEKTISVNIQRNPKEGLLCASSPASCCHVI

panel of 468 kinases [5] = molecular target: T5, panel of 468 kinases (Homo sapiens, UniProt P07948); details: LYN; 1 μM; read-out: % control
T5 construct: purchased KINOMEscan (ScanMAX) service

panel of 468 kinases [6] = molecular target: T6, panel of 468 kinases (Homo sapiens, UniProt P07947); details: YES; 1 μM; read-out: % control
T6 construct: purchased KINOMEscan (ScanMAX) service
T6 sequence (P07947 whole entry): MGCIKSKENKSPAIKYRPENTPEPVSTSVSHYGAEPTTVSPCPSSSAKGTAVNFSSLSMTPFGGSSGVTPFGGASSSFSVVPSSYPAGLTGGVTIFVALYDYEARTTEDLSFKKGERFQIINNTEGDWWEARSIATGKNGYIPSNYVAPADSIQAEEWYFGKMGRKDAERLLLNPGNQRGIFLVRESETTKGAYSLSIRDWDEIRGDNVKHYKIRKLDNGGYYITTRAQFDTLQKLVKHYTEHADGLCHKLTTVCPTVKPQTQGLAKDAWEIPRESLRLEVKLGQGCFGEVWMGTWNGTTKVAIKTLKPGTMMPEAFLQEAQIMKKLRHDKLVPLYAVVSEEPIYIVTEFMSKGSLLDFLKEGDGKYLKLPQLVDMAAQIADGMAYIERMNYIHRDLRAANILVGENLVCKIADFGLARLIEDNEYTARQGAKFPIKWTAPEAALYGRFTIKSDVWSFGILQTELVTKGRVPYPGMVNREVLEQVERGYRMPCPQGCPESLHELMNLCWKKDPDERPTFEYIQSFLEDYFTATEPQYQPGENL

T1 sequence (Q8N568 whole entry): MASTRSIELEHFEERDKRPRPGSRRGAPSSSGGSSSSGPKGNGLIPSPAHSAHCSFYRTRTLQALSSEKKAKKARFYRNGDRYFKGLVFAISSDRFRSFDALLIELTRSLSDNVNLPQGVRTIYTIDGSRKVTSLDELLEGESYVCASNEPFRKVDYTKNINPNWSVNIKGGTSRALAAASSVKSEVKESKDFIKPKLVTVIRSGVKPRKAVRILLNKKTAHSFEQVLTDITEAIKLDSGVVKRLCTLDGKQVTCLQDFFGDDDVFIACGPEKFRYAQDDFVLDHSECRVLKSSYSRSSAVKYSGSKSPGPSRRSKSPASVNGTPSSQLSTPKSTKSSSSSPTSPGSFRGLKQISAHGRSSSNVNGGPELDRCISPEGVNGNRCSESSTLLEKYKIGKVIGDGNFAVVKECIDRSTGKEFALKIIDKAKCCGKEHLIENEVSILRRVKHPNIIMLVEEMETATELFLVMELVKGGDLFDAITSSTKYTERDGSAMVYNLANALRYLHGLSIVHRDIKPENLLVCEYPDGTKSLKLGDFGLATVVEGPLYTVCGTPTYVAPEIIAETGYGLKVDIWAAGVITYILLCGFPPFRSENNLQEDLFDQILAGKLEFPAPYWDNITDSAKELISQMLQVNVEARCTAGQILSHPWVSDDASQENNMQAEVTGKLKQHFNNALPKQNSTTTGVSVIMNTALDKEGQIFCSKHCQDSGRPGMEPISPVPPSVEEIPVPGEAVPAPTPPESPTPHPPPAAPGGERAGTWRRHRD
T2 sequence (Q06187 whole entry): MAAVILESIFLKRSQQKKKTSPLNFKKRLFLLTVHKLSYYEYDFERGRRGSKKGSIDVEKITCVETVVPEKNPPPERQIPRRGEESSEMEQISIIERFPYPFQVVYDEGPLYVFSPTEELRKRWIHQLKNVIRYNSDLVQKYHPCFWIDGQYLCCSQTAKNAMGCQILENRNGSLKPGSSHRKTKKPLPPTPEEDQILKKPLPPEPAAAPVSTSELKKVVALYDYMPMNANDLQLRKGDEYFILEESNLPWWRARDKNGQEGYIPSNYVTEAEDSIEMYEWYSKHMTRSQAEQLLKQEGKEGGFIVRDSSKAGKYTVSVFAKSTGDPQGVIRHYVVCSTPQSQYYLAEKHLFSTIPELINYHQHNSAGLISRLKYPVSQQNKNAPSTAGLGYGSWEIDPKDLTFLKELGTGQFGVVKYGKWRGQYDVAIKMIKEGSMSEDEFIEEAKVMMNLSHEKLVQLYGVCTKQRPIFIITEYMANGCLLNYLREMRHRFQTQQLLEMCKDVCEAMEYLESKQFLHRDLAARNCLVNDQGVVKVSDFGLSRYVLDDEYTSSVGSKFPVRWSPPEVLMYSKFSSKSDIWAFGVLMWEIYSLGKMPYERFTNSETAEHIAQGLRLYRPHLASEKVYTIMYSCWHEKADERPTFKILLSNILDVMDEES
T5 sequence (P07948 whole entry): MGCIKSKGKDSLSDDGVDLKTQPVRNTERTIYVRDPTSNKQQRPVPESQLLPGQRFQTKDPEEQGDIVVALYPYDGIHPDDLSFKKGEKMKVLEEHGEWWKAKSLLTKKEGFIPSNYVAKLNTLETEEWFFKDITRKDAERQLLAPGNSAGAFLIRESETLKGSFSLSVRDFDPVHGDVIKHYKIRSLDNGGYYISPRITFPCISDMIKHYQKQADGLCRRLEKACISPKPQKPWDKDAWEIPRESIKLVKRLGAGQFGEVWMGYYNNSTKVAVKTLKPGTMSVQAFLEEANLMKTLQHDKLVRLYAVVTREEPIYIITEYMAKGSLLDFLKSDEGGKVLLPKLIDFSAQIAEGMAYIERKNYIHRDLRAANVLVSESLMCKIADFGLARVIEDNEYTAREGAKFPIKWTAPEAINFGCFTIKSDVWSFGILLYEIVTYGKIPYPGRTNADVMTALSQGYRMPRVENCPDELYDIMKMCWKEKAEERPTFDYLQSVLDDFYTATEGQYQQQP

| SMILES | remaining binding at 1 µM (panel of 468 kinases [1]) [%] | remaining binding at 1 µM (panel of 468 kinases [2]) [%] | remaining binding at 1 µM (panel of 468 kinases [3]) [%] | remaining binding at 1 µM (panel of 468 kinases [4]) [%] | remaining binding at 1 µM (panel of 468 kinases [5]) [%] | remaining binding at 1 µM (panel of 468 kinases [6]) [%] |
| --- | --- | --- | --- | --- | --- | --- |
| CNc1nc(Nc2ccc(C(=O)N3CCC(N4CCOCC4)CC3)c3c2OCO3)nc2[nH]cc(Cl)c12 [Compound 75, (7-((5-chloro-4-(methylamino)-7H-pyrrolo[2,3-d]pyrimidin-2-yl)amino)benzo[d][1,3]dioxol-4-yl)(4-morpholinopiperidin-1-yl)methanone] | 99 | 98 | 100 | 87 | 100 | 100 |
| CNc1nc(Nc2ccc(S(=O)(=O)N3CCC(N4CCOCC4)CC3)cc2OC)nc2[nH]cc(Cl)c12 [Compound 12, 5-chloro-N2-(2-methoxy-4-((4-morpholinopiperidin-1-yl)sulfonyl)phenyl)-N4-methyl-7H-pyrrolo[2,3-d]pyrimidine-2,4-diamine] | 96 | 79 | 100 | 91 | 100 | 100 |
| CNc1nc(Nc2ccc(P3(=O)CCN(C4CCOCC4)CC3)cc2OC)nc2[nH]cc(Cl)c12 [Compound 77, 4-(4-((5-chloro-4-(methylamino)-7H-pyrrolo[2,3-d]pyrimidin-2-yl)amino)-3-methoxyphenyl)-1-(tetrahydro-2H-pyran-4-yl)-1,4-azaphosphinane 4-oxide] | 100 | 100 | 100 | 50 | 100 | 100 |
